This is an account of results in publication PMC6522510 (Nature Communications, 2019).

Test systems include MV4-11; CHRF288-11; M07e; U937; CMS; ML-2; MOLM-13; CMK.
What all share (design): species or system AML cell lines (8); Primary HTS, single concentration about 10 uM, Cell Titer Glo viability; log10 luminescence, per cent inhibition relative to cycloheximide control
Details in all cases: 72 h, relative to cycloheximide control, log10 luminescence, inhibitor

Read-outs that look alike come from different tables or passages of the source.

As to `FC(F)(F)c1cccc(-c2nn3ncccc3c2-c2ccnc(Nc3ccc4c(c3)OCCO4)n2)c1` [SJ000573080-1, U18020/138/1], the MV4-11 %inh in the assay on MV4-11 worked out at 2.308%. Also, the CHRF288-11 %inh in the assay with CHRF288-11 is 0.7655%. The M07e %inh in the assay with M07e was -0.1766%. In addition, the U937 %inh with U937 was 3.041%. Also, the CMS %inh in the assay on CMS came out at 2.426%. Further, in the assay on ML-2, the ML-2 %inh was determined as 2.472%. Moreover, the MOLM-13 %inh in the assay on MOLM-13 was 3.832%. Moreover, the CMK %inh with CMK is reported as 6.614%.
Take `Clc1ccc(-c2nn3ncccc3c2-c2ccnc(Nc3ccccc3)n2)cc1` [SJ000573097-1, U17838/189/2]: in the assay with MV4-11, the MV4-11 %inh came to 3.385%. For the same compound, in the assay with CHRF288-11, the CHRF288-11 %inh is 6.42%. In the assay with M07e, the M07e %inh is -1.226%. For the same compound, in the assay with U937, the U937 %inh is on record as -1.31%. The CMS %inh in the assay with CMS came to 3.744%. The ML-2 %inh in the assay on ML-2 was -2.244%. Besides, in the assay on MOLM-13, the MOLM-13 %inh came out at 0.7466%. The CMK %inh in the assay with CMK is 3.667%.
Consider `O=C(O)P(=O)(O)O` [SJ000285291-3, FOSCARNET SODIUM], for which the MV4-11 %inh with MV4-11 is 0.7745%. Moreover, in the assay with CHRF288-11, the CHRF288-11 %inh was -2.096%. Moreover, the M07e %inh in the assay on M07e is recorded as -4.14%. Moreover, the U937 %inh in the assay on U937 is reported as -2.189%. For the same compound, in the assay with CMS, the CMS %inh was determined as 0.8709%. Moreover, the ML-2 %inh with ML-2 was -0.9621%. In addition, the MOLM-13 %inh in the assay with MOLM-13 was found to be 3.283%. Besides, the CMK %inh in the assay with CMK is listed as 3.052%.
Turning to `O=C(Nc1n[nH]c2nc(-c3ccco3)c(Br)cc12)C1CC1` [SJ000573145-1, AG201339-071A1], the MV4-11 %inh with MV4-11 is on record as 10.91%. In addition, the CHRF288-11 %inh in the assay on CHRF288-11 is -1.607%. The M07e %inh with M07e is given as -5.829%. Further, the U937 %inh with U937 is -0.3135%. Moreover, in the assay on CMS, the CMS %inh is on record as 6.31%. Further, the ML-2 %inh in the assay with ML-2 is -0.5766%. For the same compound, the MOLM-13 %inh in the assay on MOLM-13 was found to be 0.2319%. Also, the CMK %inh in the assay with CMK was 0.1482%.
In the case of `C[C@]12CC[C@@H]3c4ccc(O)cc4C[C@@H](CCCCCCCCC[S+]([O-])CCCC(F)(F)C(F)(F)F)[C@H]3[C@@H]1CC[C@@H]2O` (single isomer, unassigned) [SJ000288293-3, FULVESTRANT | FULVESTRANT| FASLODEX | FASLODEX (ICI 182,780)], the MV4-11 %inh in the assay with MV4-11 (MV4-11 %inh, 10 µM) was 13.25%. The CHRF288-11 %inh in the assay on CHRF288-11 (CHRF288-11 %inh, 10 µM) came out at 4.612%. Further, the M07e %inh with M07e (M07e %inh, 10 µM) was 3.741%. For the same compound, the U937 %inh in the assay on U937 (U937 %inh, 10 µM) is reported as -0.5617%. The CMS %inh in the assay with CMS (CMS %inh, 10 µM) was 2.454%. Moreover, the ML-2 %inh in the assay on ML-2 (ML-2 %inh, 10 µM) turned out to be 2.01%. In the assay with MOLM-13 (MOLM-13 %inh, 10 µM), the MOLM-13 %inh is -2.461%. Further, in the assay with CMK (CMK %inh, 10 µM), the CMK %inh is -2.659%.
For the compound `COc1cc(N2CCN(C(C)C)CC2)ccc1Nc1nc(Nc2cccc(F)c2C(=O)O)c2cc[nH]c2n1` [SJ000573302-1, U24644/141/1], in the assay with MV4-11, the MV4-11 %inh is listed as -1.676%. Further, the CHRF288-11 %inh in the assay with CHRF288-11 came out at 2.245%. The M07e %inh in the assay on M07e is listed as 1.407%. The U937 %inh with U937 is recorded as -3.308%. In the assay with CMS, the CMS %inh was -1.742%. In addition, the ML-2 %inh with ML-2 was 1.383%. For the same compound, the MOLM-13 %inh in the assay on MOLM-13 was -2.196%. Further, the CMK %inh in the assay on CMK is recorded as -4.539%.
Turning to `COc1ccc2cc1Oc1cc3c(cc1OC)CC[N+](C)(C)[C@H]3Cc1ccc(cc1)Oc1c(OC)c(OC)cc3c1[C@@H](C2)[N+](C)(C)CC3` [SJ000565179-1, METOCURINE IODIDE], the MV4-11 %inh in the assay on MV4-11 was 1.51%. In the assay with CHRF288-11, the CHRF288-11 %inh stood at 0.972%. Besides, the M07e %inh with M07e is -0.367%. The U937 %inh in the assay on U937 is reported as -0.03863%. Further, in the assay on CMS, the CMS %inh is given as -2.545%. Besides, the ML-2 %inh in the assay with ML-2 is -0.842%. For the same compound, in the assay with MOLM-13, the MOLM-13 %inh is 0.1471%. Besides, the CMK %inh with CMK was -2.411%.
